The results in this text go back to patent US20240043404A1 (AbbVie Inc., priority 2009, published 2024).

The structures appear in SMILES notation. Some results are limits rather than exact numbers.

The test system of this assay is RS4;11 cells. Description: RS4;11 cell viability assay (CellTiter Glo).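 Note: acute lymphoblastic leukemia line RS4,11, EC50 derived from percentage of viable cells after treatment relative to untreated controls, cell killing taken as a measure of Bcl-2 inhibition.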 The following applies: Homo sapiens, RS4-11, 48 h, 50,000 cells per well, 10% human serum, 48 hours; read-out: RS4; 11 EC50 Values. Format: cell-based, human.
Method: The acute lymphoblastic leukemia (ALL) cell line RS4;11 was used as the primary human cell line to assess the cellular activity of Bcl-2 selective agents in vitro and their efficacy in vivo.
Cell cytotoxicity EC50 values were assessed using CellTiter Glo (Promega) according to the manufacturer's recommendations. The EC50 values were determined as a percentage of viable cells following treatment compared to the untreated control cells.
With `CC1(C)CCC(CN2CCN(c3ccc(C(=O)NS(=O)(=O)c4ccc(N[C@@H]5CCN(CC(F)F)C5)c([N+](=O)[O-])c4)c(Oc4cnc5[nH]ccc5c4)c3)CC2)=C(c2ccc(Cl)cc2)C1` [Example 180, 4-(4-{[2-(4-chlorophenyl)-4,4-dimethylcyclohex-1-en-1-yl]methyl}piperazin-1-yl)-N-[(4-{[(3R)-1-(2,2-difluoroethyl)pyrrolidin-3-yl]amino}-3-nitrophenyl)sulfonyl]-2-(1H-pyrrolo[2,3-b]pyridin-5-yloxy)benzamide], the EC50 was determined as 0.0118 µM.
As for `O=C(NS(=O)(=O)c1cnc(OCC2(F)CCN(C3COC3)CC2)c(Cl)c1)c1ccc(N2CCN(CC3=C(c4ccc(Cl)cc4)CC4(CC3)CC4)CC2)cc1Oc1cnc2[nH]ccc2c1` [Example 345, N-[(5-chloro-6-{[4-fluoro-1-(oxetan-3-yl)piperidin-4-yl]methoxy}pyridin-3-yl)sulfonyl]-4-(4-{[5-(4-chlorophenyl)spiro[2.5]oct-5-en-6-yl]methyl}piperazin-1-yl)-2-(1H-pyrrolo[2,3-b]pyridin-5-yloxy)benzamide], the EC50 was 0.00925 µM.
Take `CC1(C)CC(c2ccc(Cl)cc2)=C(CN2CCN(c3ccc(C(=O)NS(=O)(=O)c4ccc(NCC5COCCO5)c([N+](=O)[O-])c4)c(Oc4cnc5[nH]ccc5c4)c3)CC2)CO1` (stereo not shown) [Example 31, 4-(4-{[4-(4-chlorophenyl)-6,6-dimethyl-5,6-dihydro-2H-pyran-3-yl]methyl}piperazin-1-yl)-N-({4-[(1,4-dioxan-2-ylmethyl)amino]-3-nitrophenyl}sulfonyl)-2-(1H-pyrrolo[2,3-b]pyridin-5-yloxy)benzamide]: the EC50 turned out to be 0.0157 µM.
The same measure for `CC1(C)CCC(CN2CCN(c3ccc(C(=O)NS(=O)(=O)c4cnc(OC[C@@H]5C[C@H]6C[C@@H]5C[C@@]6(C)O)c(Cl)c4)c(Oc4cnc5[nH]ccc5c4)c3)CC2)=C(c2ccc(Cl)cc2)C1` [Example 339, N-[(5-chloro-6-{[(1R,2R,4R,5R)-5-hydroxy-5-methylbicyclo[2.2.1]hept-2-yl]methoxy}pyridin-3-yl)sulfonyl]-4-(4-{[2-(4-chlorophenyl)-4,4-dimethylcyclohex-1-en-1-yl]methyl}piperazin-1-yl)-2-(1H-pyrrolo[2,3-b]pyridin-5-yloxy)benzamide]: 0.45 µM.
In the case of `CC1(C)CCC(CN2CCN(c3ccc(C(=O)NS(=O)(=O)c4ccc(NCC5CN(S(C)(=O)=O)CCO5)c([N+](=O)[O-])c4)c(Oc4cnc5[nH]ccc5c4)c3)CC2)=C(c2ccc(Cl)cc2)C1` (stereo not shown) [Example 319, 4-(4-{[2-(4-chlorophenyl)-4,4-dimethylcyclohex-1-en-1-yl]methyl}piperazin-1-yl)-N-{[4-({[4-(methylsulfonyl)morpholin-2-yl]methyl}amino)-3-nitrophenyl]sulfonyl}-2-(1H-pyrrolo[2,3-b]pyridin-5-yloxy)benzamide] it was 0.0045 µM.
The same measure for `CC1(C)CCC(CN2CCN(c3ccc(C(=O)NS(=O)(=O)c4ccc(NC5CCN(S(C)(=O)=O)CC5)c([N+](=O)[O-])c4)c(Oc4cnc5[nH]ccc5c4)c3)CC2)=C(c2ccc(Cl)cc2)C1` [Example 80, 4-(4-{[2-(4-chlorophenyl)-4,4-dimethylcyclohex-1-en-1-yl]methyl}piperazin-1-yl)-N-[(4-{[1-(methylsulfonyl)piperidin-4-yl]amino}-3-nitrophenyl)sulfonyl]-2-(1H-pyrrolo[2,3-b]pyridin-5-yloxy)benzamide]: 0.0686 µM; for `CCOC(=O)N1CCN(c2ccc(S(=O)(=O)NC(=O)c3ccc(N4CCN(CC5=C(c6ccc(Cl)cc6)CC(C)(C)CC5)CC4)cc3Oc3cnc4[nH]ccc4c3)cc2[N+](=O)[O-])CC1` [Example 222, ethyl 4-(4-{[4-(4-{[2-(4-chlorophenyl)-4,4-dimethylcyclohex-1-en-1-yl]methyl}piperazin-1-yl)-2-(1H-pyrrolo[2,3-b]pyridin-5-yloxy)benzoyl]sulfamoyl}-2-nitrophenyl)piperazine-1-carboxylate]: greater than 1 µM.
